From PubChem BioAssay AID2060894 (Molecular Pharmacology Branch, DTP, NCI, 2025)

Test system: K12877-001-R-J1-PDC complex spheroid viability
Assay: Anticancer human tumor K12877-001-R-J1-PDC patient-derived lung adenocarcinoma cell line growth inhibition [RAS]
Settings: for IC50: curve of first compound; for viability, T/C: stronger effect = lower value
How it was run: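 Multi-cell-type spheroids: tumor cells plus HUVEC endothelial cells and mesenchymal stem cells. RAS-pathway inhibitors were combined with targeted agents, each dosed in half-log steps down from clinical Cmax, or from 10 microM when Cmax was unknown.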
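Also: spheroids exposed to agents for one week before readout.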
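For viability, T/C in this document: tumour cells co-cultured with HUVEC and mesenchymal stem cells in spheroids.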

Cc1nc(N2CCC3(CC2)COC(C)C3N)c(CO)nc1Sc1ccnc(N)c1Cl (configuration not stated) + CCn1c(-c2cc(N3CCN(C)CC3)cnc2C(C)OC)c2c3cc(ccc31)-c1csc(n1)CC(NC(=O)C1CC1C)C(=O)N1CCCC(N1)C(=O)OCC(C)(C)C2
IC50 (second compound 0.000949 µM): > 10 µM
IC50 (second compound 0.003 µM): > 10 µM
IC50 (second compound 0.00949 µM): > 10 µM
IC50 (second compound 0.03 µM): > 10 µM
IC50 (second compound 0.0949 µM): > 10 µM
IC50 (second compound 0.3 µM): 8.66 µM
viability, T/C (second compound 0.000949 µM, first compound 0.0316 µM): 77.8%
viability, T/C (second compound 0.000949 µM, first compound 0.1 µM): 69.4%
viability, T/C (second compound 0.000949 µM, first compound 0.316 µM): 71.7%
viability, T/C (second compound 0.000949 µM, first compound 1 µM): 59%
viability, T/C (second compound 0.000949 µM, first compound 3.16 µM): 66.7%
viability, T/C (second compound 0.000949 µM, first compound 10 µM): 58.7%
viability, T/C (second compound 0.003 µM, first compound 0.0316 µM): 63.6%
viability, T/C (second compound 0.003 µM, first compound 0.1 µM): 57.7%
viability, T/C (second compound 0.003 µM, first compound 0.316 µM): 62.1%
viability, T/C (second compound 0.003 µM, first compound 1 µM): 63.4%
viability, T/C (second compound 0.003 µM, first compound 3.16 µM): 69.3%
viability, T/C (second compound 0.003 µM, first compound 10 µM): 71.3%
viability, T/C (second compound 0.00949 µM, first compound 0.0316 µM): 72.2%
viability, T/C (second compound 0.00949 µM, first compound 0.1 µM): 70.8%
viability, T/C (second compound 0.00949 µM, first compound 0.316 µM): 79.8%
viability, T/C (second compound 0.00949 µM, first compound 1 µM): 73.4%
viability, T/C (second compound 0.00949 µM, first compound 3.16 µM): 71.8%
viability, T/C (second compound 0.00949 µM, first compound 10 µM): 56.4%
viability, T/C (second compound 0.03 µM, first compound 0.0316 µM): 97.1%
viability, T/C (second compound 0.03 µM, first compound 0.1 µM): 93.7%
viability, T/C (second compound 0.03 µM, first compound 0.316 µM): 93.9%
viability, T/C (second compound 0.03 µM, first compound 1 µM): 81%
viability, T/C (second compound 0.03 µM, first compound 3.16 µM): 75.9%
viability, T/C (second compound 0.03 µM, first compound 10 µM): 59.5%
viability, T/C (second compound 0.0949 µM, first compound 0.0316 µM): 98.8%
viability, T/C (second compound 0.0949 µM, first compound 0.1 µM): 94%
viability, T/C (second compound 0.0949 µM, first compound 0.316 µM): 94.5%
viability, T/C (second compound 0.0949 µM, first compound 1 µM): 76.2%
viability, T/C (second compound 0.0949 µM, first compound 3.16 µM): 67.2%
viability, T/C (second compound 0.0949 µM, first compound 10 µM): 50.2%
viability, T/C (second compound 0.3 µM, first compound 0.0316 µM): 97.5%
viability, T/C (second compound 0.3 µM, first compound 0.1 µM): 86.1%
viability, T/C (second compound 0.3 µM, first compound 0.316 µM): 81.5%
viability, T/C (second compound 0.3 µM, first compound 1 µM): 71.2%
viability, T/C (second compound 0.3 µM, first compound 3.16 µM): 65.6%
viability, T/C (second compound 0.3 µM, first compound 10 µM): 45.6%
